Results reported in patent publication US20240091138A1, “TOPICAL C[…]” (EGIS GYÓGYSZERGYÁR ZRT., priority 2021, published 2024).

Columns and labels:
[1] = Solubility of pregabalin; settings: in any solvents
[2] = test system: Wistar rats; experiment: Chronic constriction injury (CCI) rat model of neuropathy, paw withdrawal threshold with electronic von Frey; type: in vivo; settings: 16.66 mg/kg
Source text: Furthermore, based on the article Bennett G J, at al (Pain, A peripheral mononeuropathy in rat that produces disorders of pain sensation like those seen in man. 1988 April; 33(1):87-107) we have developed a method for the examination of the compositions of the present invention. Thus, we have examined the compositions according to the present invention also with a different model for measuring the alleviation of the peripheral neuropathic pain also. Namely, we have carried out examinations on rats using Chronic constriction injury (CCI) model. Three weeks following nerve injury rats were assessed for hind paw mechanical withdrawal thresholds. The paw withdrawal threshold (PWT) was determined with an Electronic von Frey device according to the modified up-down method of Dixon (Efficient analysis of experimental observations, Annu Rev Pharmacol Toxicol. 1980; 20:441-62). […] The method and results are shown in example 3 and on FIG. 9.
Thus, the compositions of the present invention are effective in the treatment of neuropathic pain. […]
Briefly, under isoflurane anesthesia small blunt dissection was made into the skin of rat right thigh then three loosely constrictive ligatures were placed around common sciatic nerve (chronic constriction injury CCI). Three weeks following nerve injury rats were assessed for hind paw mechanical withdrawal thresholds. […]

[3] = Pharmacokinetic studies (blood levels of pregabalin); settings: during topical treatment

CC(C)C[C@H](CN)CC(=O)O [pregabalin]
Solubility [1]: poor
reduction of hypersensitivity after oral administration [2]: not able to reduce hypersensitivity
amount of pregabalin entering the bloodstream [3]: very small amounts
